From article PMC7290864, “Allosteric Antagonism of the A2A Adenosine Receptor by a Series of Bitopic Ligands” (Cells, 2020)

Tests used:
human A2AAR [1] = target: T1, human A2AAR (Homo sapiens, UniProt P29274); assay: [^3H]CGS21680 radioligand binding, HEK293 membranes; settings: for [^3H]CGS21680 binding, percent effect of the fluorophore amide alone: at a concentration of 10 µM; for Ki: 5 nM [^3H]CGS21680, membranes, 25 °C, 60 min
T1 construct: expressed in transfected cells; host or cells: HEK293 cells stably expressing the human A2AAR
T1 sequence (P29274 whole entry): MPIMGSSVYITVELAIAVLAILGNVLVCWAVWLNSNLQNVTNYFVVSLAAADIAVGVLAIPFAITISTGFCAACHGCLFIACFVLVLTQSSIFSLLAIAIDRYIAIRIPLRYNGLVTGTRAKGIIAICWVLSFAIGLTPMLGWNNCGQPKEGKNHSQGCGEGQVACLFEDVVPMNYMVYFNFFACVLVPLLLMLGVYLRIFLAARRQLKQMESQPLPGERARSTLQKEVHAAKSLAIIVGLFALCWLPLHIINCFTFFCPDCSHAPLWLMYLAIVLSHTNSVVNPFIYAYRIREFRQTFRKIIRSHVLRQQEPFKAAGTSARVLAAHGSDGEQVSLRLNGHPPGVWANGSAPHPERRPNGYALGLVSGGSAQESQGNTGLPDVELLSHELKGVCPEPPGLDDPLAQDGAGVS
Procedure: (§1) HEK293 cells expressing the human A2AAR were cultured in DMEM supplemented with 10% fetal bovine serum, 100 Units/mL penicillin, 100 µg/mL streptomycin and 2 µmol/mL glutamine. To prepare cell membranes, cells were detached from plates by scraping into PBS and centrifuged at 250× g for 5 min. The resulting pellets were re-suspended in ice-cold Tris-HCl buffer (50 mM, pH 7.4) and homogenized. After homogenization and suspension, cells were first centrifuged at 1000× g for 10 min and the pellet was discarded. The suspension was then re-centrifuged at 20,000× g for 60 min at 4 °C. The pellets were re-suspended, split into aliquots and stored at −80 °C. The protein concentration was measured using the Bradford assay.
(§2) Radioligand binding assays were performed using membranes prepared from HEK293 cells expressing human the A2AAR using both agonist and antagonist radioligands as previously described. […] (5 nM) or [^3H]ZM241385 (1 nM) and membrane preparations (20 μg protein) at 25 °C for 60 min in a total of 200 μL of Tris-HCl buffer (50 mM, pH 7.5) containing 10 mM MgCl2. […] Binding reactions were terminated by filtration through Whatman GF/B filters under reduced pressure using an MT-24 cell harvester (Brandell, Gaithersburg, MD, USA) followed by washing twice with 5 mL of cold Tris-HCl buffer.
(§3) Functional parameters were calculated using Prism 8.1.0 software (GraphPAD, San Diego, CA, USA). Data were expressed as mean ± standard error. Data were analyzed by analysis of variance (ANOVA) followed by post hoc analysis to check the statistical difference among groups with p < 0.05 being considered significant.

A2AAR D52A mutation = tested on: A2AAR D52A mutation; design: method as in Massink et al. [10],[11]; settings: ref Massink et al. [10],[11]; cited from earlier work
human A2AAR [2] = target: T1, human A2AAR; assay: Fluorescent ligand MRS7416 binding to intact HEK293 cells (flow cytometry); settings: for Ki: displacement of 15 nM fluorescent MRS7416, intact cells, 37 °C, 60 min; for Times weaker in displacing MRS7416 binding than radioligand binding: fluorescent versus radioligand Ki
Procedure: Cells were plated in 96-well plates and grow overnight. In saturation binding experiments with fluorescent antagonist MRS7416, various concentrations were incubated in cell culture medium with control HEK293 cells or HEK293 cells expressing the A2AAR for 60 min at 37 °C in an atmosphere containing 5% CO2. […] At the end the reaction, the medium was removed, and cells were washed twice with PBS. After washing, 0.2 mL 0.1% EDTA solution was added to each well, and cells were incubated at 37 °C for 10 min. Following cell detachment and mixing of cells, the intensity of fluorescence emission of each sample was measured by using flow cytometry as previously described. […] Samples were maintained in the dark during the analysis to avoid photobleaching. Mean fluorescence intensity (MFI) was determined in the FL-1 channel in log mode. Ten thousand events were analyzed per sample. Data were collected using Cell Quest Pro software (BD, Franklin Lakes, NJ, USA) and analyzed by Cyflogic v. 1.2.1 software (CyFlo, Ltd., Turku, Finland).

human A2AAR [3] = target: T1, human A2AAR; assay: cAMP accumulation assay, antagonism of CGS21680 with Schild analysis; type: cell-based; settings: for Kb / Functional Antagonism Slope (Schild): Schild analysis, CGS21680-induced cAMP; for Kb: antagonist pretreatment 20 min, read-out: Functional Antagonism KB; for Functional Antagonism Slope (Schild): linear part of plot only for XAC630, MRS7396, HMA; for Pattern of A2AAR antagonism: from functional antagonism and Schild analysis
Procedure: HEK293 cells stably expressing the human A2AAR were seeded in 96-well plates and incubated in 100 µL medium at 37 °C overnight. The medium was removed the following day and cells were then treated with assay buffer containing rolipram (10 μM) and antagonists for 20 min followed by the addition of agonists, and then incubated for 20 min. The reaction was terminated upon removal of the supernatant and addition of 100 µL Tween-20 (0.3%). Intracellular 3′,5′-cyclic adenosine monophosphate (cAMP) levels were measured with an ALPHAScreen cAMP assay kit as instructed by the manufacturer (PerkinElmer, Boston, MA, USA).
as §3
To examine and analyze mechanistically the patterns of functional antagonism by various antagonists of different chemical entities, cells expressing relatively low A2AAR levels with minimal signaling amplification were used, as recommended, since receptor overexpression is related to the constitutive activity, and signaling amplification has been linked to changing the patterns of antagonism.

human A2AAR [4] = target: T1, human A2AAR; assay: [^3H]ZM241385 radioligand binding, HEK293 membranes; settings: for Ki: WT receptor, 1 nM [^3H]ZM241385, membranes, 25 °C, 60 min
Procedure: as §1, §2, §3

D52N mutant A2AAR = target: T2, D52N mutant A2AAR (Homo sapiens, UniProt P29274, D52N); assay: [^3H]ZM241385 binding to D52N mutant A2AAR expressed in HEK293 cells; settings: for Ki: 1 nM [^3H]ZM241385
T2 construct: expressed in transfected cells; host or cells: HEK293 cells
T2 sequence (P29274 whole entry D52N): as the sequence (P29274 whole entry) above, with D52N counted along it
Procedure: as §2
Here we examined if HMA and MRS7396 behave in a similar manner or not.
Data were from three independent experiments performed in duplicate.

Structure (SMILES) | [^3H]CGS21680 binding, percent effect of the fluorophore amide alone (human A2AAR [1]) [%] | Ki (human A2AAR [2]) [nM] | Times weaker in displacing MRS7416 binding than radioligand binding (human A2AAR [2]) | Kb (human A2AAR [3]) [µM] | Functional Antagonism Slope (Schild) (human A2AAR [3]) | Ki (human A2AAR [1]) [nM] | Ki (human A2AAR [4]) [nM] | Pattern of A2AAR antagonism (human A2AAR [3]) | Fold more potent in binding in comparison to MRS7416 (human A2AAR [4]; radioligand binding) [fold] | Fold weaker at WT than at the D52N mutant receptor (D52N mutant A2AAR; [^3H]ZM241385 binding) | Kd (human A2AAR [2]; saturation binding, intact cells, n = 6, read-out: Kd value from MRS7416 saturation experiments) [µM] | Fold decrease of affinity by D52A mutation (A2AAR D52A mutation) | Ki (D52N mutant A2AAR) [µM] | Fold affinity decrease at D52N versus WT (D52N mutant A2AAR; [^3H]ZM241385 binding) [fold]
N=c1ccc2c(-c3ccc(C(N)=O)cc3C(=O)O)c3ccc(N)c(S(=O)(=O)O)c3oc-2c1S(=O)(=O)O [AF488-amide] | 3.7 ± 1.2 | – | – | – | – | – | – | – | – | – | – | – | – | –
NC(=O)CCCCCNC(=O)COc1ccc(/C=C/C2=[N+]3C(=Cc4ccc(-c5cccs5)n4[B-]3(F)F)C=C2)cc1 [BY630-amide] | 2.6 ± 1.5 | – | – | – | – | – | – | – | – | – | – | – | – | –
NC(N)=NC(=O)c1nc(Cl)c(N2CCCCCC2)nc1N [HMA, 5-(N,N-hexamethylene)amiloride, reference compound] | – | 18500 ± 2800 | 9–100 times | 3.81 ± 0.45 | 0.59 ± 0.05 | 2120 ± 510 | 3050 ± 1210 | – | – | – | – | over 10 fold | 15.8 | 5

Further lines, with some results ahead:

[^3H]CGS21680 binding, percent effect of the fluorophore amide alone (human A2AAR [1]) [%] | Ki (human A2AAR [2]) [nM] | Times weaker in displacing MRS7416 binding than radioligand binding (human A2AAR [2]) | Kb (human A2AAR [3]) [µM] | Functional Antagonism Slope (Schild) (human A2AAR [3]) | Ki (human A2AAR [1]) [nM] | Ki (human A2AAR [4]) [nM] | Pattern of A2AAR antagonism (human A2AAR [3]) | Fold more potent in binding in comparison to MRS7416 (human A2AAR [4]; radioligand binding) [fold] | Fold weaker at WT than at the D52N mutant receptor (D52N mutant A2AAR; [^3H]ZM241385 binding) | Kd (human A2AAR [2]; saturation binding, intact cells, n = 6, read-out: Kd value from MRS7416 saturation experiments) [µM] | Structure (SMILES) | Fold decrease of affinity by D52A mutation (A2AAR D52A mutation) | Ki (D52N mutant A2AAR) [µM] | Fold affinity decrease at D52N versus WT (D52N mutant A2AAR; [^3H]ZM241385 binding) [fold]
– | 23 ± 4.6 | – | – | – | – | 13.3 ± 6.5 | – | – | – | – | N#Cc1c(N)nc(SCc2ncc[nH]2)c(C#N)c1-c1ccc(O)cc1 [LUF5834, 2-amino-4-(4-hydroxyphenyl)-6-[(1H-imidazol-2-ylmethyl)thio]-3,5-pyridinecarbonitrile, reference compound] | – | – | –
– | 5.28 ± 1.31 | – | 0.00661 ± 0.00088 | 0.88 ± 0.06 | 4.98 ± 1.13 | 6.24 ± 2.42 | – | – | – | – | Nc1nc2c(cnn2CCCc2ccc(OCc3ccc(S(=O)(=O)O)cc3)cc2)c2nc(-c3ccco3)nn12 [MRS7352] | – | – | –
– | 256 ± 33 | 9–100 times | 0.0017 ± 0.00034 | 0.42 ± 0.02 | 2.83 ± 0.2 | 2.34 ± 0.33 | allosteric A2AAR antagonists | 10 | ~ 3 fold | – | Nc1nc2c(cnn2CCCc2ccc(OCC(=O)NCCCCNC(=O)CCCCCNC(=O)COc3ccc(/C=C/C4=[N+]5C(=Cc6ccc(-c7cccs7)n6[B-]5(F)F)C=C4)cc3)cc2)c2nc(-c3ccco3)nn12 [MRS7396] | – | 0.00079 ± 0.00023 | –
– | – | – | 0.00911 ± 0.00177 | 0.68 ± 0.03 | 16.4 ± 1.6 | 23.8 ± 5.6 | allosteric A2AAR antagonists | – | – | 0.0176 ± 0.0041 | N=c1ccc2c(-c3ccc(C(=O)NCCCCNC(=O)COc4ccc(CCCn5ncc6c5nc(N)n5nc(-c7ccco7)nc65)cc4)cc3C(=O)O)c3ccc(N)c(S(=O)(=O)O)c3oc-2c1S(=O)(=O)O [MRS7416] | – | – | –
– | 152 ± 29 | – | 0.28 ± 0.033 | 0.68 ± 0.04 | 220 ± 36 | 198 ± 33 | allosteric A2AAR antagonists | – | – | – | CCCn1c(=O)c2[nH]c(-c3ccc(OCC(=O)NCCNC(=O)CCNC(=O)CCCCNC(=O)CCCCCN)cc3)nc2n(CCC)c1=O [XAC245] | – | – | –
– | – | – | 0.65 ± 0.12 | 1.03 ± 0.05 | 438 ± 110 | 388 ± 62 | antagonized competitively | – | – | – | CCCn1c(=O)c2[nH]c(-c3ccc(OCC(=O)NCCNC(=O)CCNC(=O)CCCCNC(=O)CCCCCNC(=O)c4ccc(-c5c6ccc(=N)c(S(=O)(=O)O)c-6oc6c(S(=O)(=O)O)c(N)ccc56)c(C(=O)O)c4)cc3)nc2n(CCC)c1=O [XAC488] | – | – | –
– | 692 ± 173 | 9–100 times | 0.0511 ± 0.0122 | 0.47 ± 0.04 | 29 ± 5.7 | 36.6 ± 10.1 | allosteric A2AAR antagonists | – | – | – | CCCn1c(=O)c2[nH]c(-c3ccc(OCC(=O)NCCNC(=O)CCCCCNC(=O)COc4ccc(/C=C/C5=[N+]6C(=Cc7ccc(-c8cccs8)n7[B-]6(F)F)C=C5)cc4)cc3)nc2n(CCC)c1=O [XAC630, reference compound] | – | – | –
